{"source": "patent US20150141518A1", "about": "“WATER-MISCIBLE STABLE SOLUTION COMPOSITION FOR PHARMACEUTICALLY ACTIVE INGREDIENTS THAT ARE POORLY SOLUBLE IN WATER AND SUSCEPTIBLE TO CHEMICAL DEGRADATION” (Emphascience, Inc., priority 2013, published 2015)", "origin": "cited, not measured here", "key": {"[1]": {"conditions": "accelerated at extremes of pH and higher temperatures"}, "[2]": {"conditions": "room temperature"}}}
{"smiles": "CC(=O)Nc1ccc(O)cc1", "note": "[paracetamol]", "values": [{"measurement": "overall rate of chemical degradation of paracetamol in solution", "setting": "[1]", "value": "first order kinetics"}, {"measurement": "solubility of paracetamol in water", "setting": "[2]", "value": "ca. 13 mg/mL"}]}
